In patent publication US8747362B2, “Microneedle device” (Hisamitsu Pharmaceutical Co., Inc, priority 2009, dated 2014):

Assays:
[1] = Viscosity measurement of carrier (coating agent) by micron-sample viscometer; format: physicochemical; conditions: 25° C., average of 10
Description: • Material: Polylactic acid having a weight average molecular weight of about 80,000, Height: 500 μm, Density: 625 needles/cm^2, Formulation area of a microneedle base: 1 cm^2/patch (b) Metal Mask Plate • Pitch: 400 μm, Mask thickness: 100 μm, Opening: square shape (one side: 250 μm) (c) Environmental Setting: Room Temperature (25° C.)
The concentration of octreotide acetate and the concentration of propylene glycol or glycerin were set as shown in Table 3 and Table 4, and the materials were set in a rotating/revolving mixer to prepare a carrier (a coating agent). The viscosity of the obtained carrier (the coating agent) was measured 10 times by use of a micron-sample viscometer (RHEOSENSE INC., Micron Sample-Viscometer/Rheometer-on-a-chip VROCTM); calculated average values are shown in. Table 3 and Table 4.

[2] = Content (amount deposited) of octreotide acetate per patch of microneedle device, BCA method; format: physicochemical; conditions: average of 10
Description: • Material: Polylactic acid having a weight average molecular weight of about 80,000, Height: 500 μm, Density: 625 needles/cm^2, Formulation area of a microneedle base: 1 cm^2/patch (b) Metal Mask Plate • Pitch: 400 μm, Mask thickness: 100 μm, Opening: square shape (one side: 250 μm) (c) Environmental Setting: Room Temperature (25° C.) The concentration of octreotide acetate and the concentration of propylene glycol or glycerin were set as shown in Table 3 and Table 4, and the materials were set in a rotating/revolving mixer to prepare a carrier (a coating agent). Application of the carrier (the coating agent) to microneedles was performed by a predetermined method. More specifically, the carrier the coating agent) was swept by a spatula to fill openings of a metal mask with the carrier. Microneedles (needles) were inserted in the openings thus filled, and then taken out therefrom, and subsequently, the carrier (the coating agent) thus applied on the microneedles was extracted by purified water. By a BCA method (an octreotide standard), the content (an amount deposited) of octreotide acetate per one patch (sheet) of a microneedle device was measured 10 times; calculated average values are shown in Table 3 and Table 4.

[3] = carrier: octreotide acetate 20 / glycerin 80 % by weight
[4] = carrier: octreotide acetate 20 / propylene glycol 80 % by weight
[5] = carrier: octreotide acetate 30 / glycerin 70 % by weight
[6] = carrier: octreotide acetate 35 / glycerin 65 % by weight
[7] = carrier: octreotide acetate 40 / glycerin 60 % by weight
[8] = carrier: octreotide acetate 40 / propylene glycol 60 % by weight
[9] = carrier: octreotide acetate 50 / glycerin 50 % by weight
[10] = carrier: octreotide acetate 50 / propylene glycol 50 % by weight
[11] = carrier: octreotide acetate 60 / glycerin 40 % by weight
[12] = carrier: octreotide acetate 60 / propylene glycol 40 % by weight
[13] = carrier: octreotide acetate 70 / propylene glycol 30 % by weight
[14] = carrier: octreotide acetate 80 / propylene glycol 20 % by weight

- Viscosity Avg. [1, 3]: 2900 cps
- Viscosity Avg. [1, 4]: 200 cps
- Viscosity Avg. [1, 5]: 9000 cps
- Viscosity Avg. [1, 6]: 12000 cps
- Viscosity Avg. [1, 7]: 15000 cps
- Viscosity Avg. [1, 8]: 1600 cps
- Viscosity Avg. [1, 9]: 21000 cps
- Viscosity Avg. [1, 10]: 5400 cps
- Viscosity Avg. [1, 11]: 27000 cps
- Viscosity Avg. [1, 12]: 15000 cps
- Viscosity Avg. [1, 13]: 45000 cps
- Viscosity Avg. [1, 14]: 133000 cps
- Content Avg. [2, 3]: 6 μg/patch
- Content Avg. [2, 4]: 4 μg/patch
- Content Avg. [2, 5]: 39 μg/patch
- Content Avg. [2, 6]: 53 μg/patch
- Content Avg. [2, 7]: 89 μg/patch
- Content Avg. [2, 8]: 36 μg/patch
- Content Avg. [2, 9]: 169 μg/patch
- Content Avg. [2, 10]: 121 μg/patch
- Content Avg. [2, 11]: 149 μg/patch
- Content Avg. [2, 12]: 243 μg/patch
- Content Avg. [2, 13]: 237 μg/patch
- Content Avg. [2, 14]: 97 μg/patch
Compound: C[C@@H](O)[C@@H]1NC(=O)[C@H](CCCCN)NC(=O)[C@@H](Cc2c[nH]c3ccccc23)NC(=O)[C@H](Cc2ccccc2)NC(=O)[C@@H](NC(=O)[C@H](N)Cc2ccccc2)CSSC[C@@H](C(=O)N[C@H](CO)[C@@H](C)O)NC1=O [Octreotide acetate, octreotide acetate]
